The text below walks through data of ChEMBL document CHEMBL3600370, “Synthesis and evaluation of novel prenylated chalcone derivatives as anti-leishmanial and anti-trypanosomal compounds” (Bioorg Med Chem Lett, 2015).

Assay [1] deals with Leishmania amazonensis. The experiment in a line: Anti-leishmanial activity against Leishmania amazonensis MPRO/BR/1972/M1841-LV-79 promastigotes assessed as parasite growth inhibition incubated for 72 hrs by MTT assay. In kind it is functional, organism-based. The following applies: MPRO/BR/1972/M1841-LV-79, 72 h. A general note: Formazan colour is commonly taken as a measure of viable cells.

Assay [2] is described as follows: Selectivity index, ratio of EC50 for BALB/c mouse peritoneal macrophages to EC50 for Leishmania amazonensis MPRO/BR/1972/M1841-LV-79 promastigotes.
Assay [3] has as its system Leishmania infantum. Put plainly: Anti-leishmanial activity against Leishmania infantum MHOM/BR/72 promastigotes assessed as parasite growth inhibition incubated for 72 hrs by MTT assay. Type of assay: functional, organism-based. Conditions: MHOM/BR/72, 72 h.
A short description of assay [4]: Selectivity index, ratio of EC50 for BALB/c mouse peritoneal macrophages to EC50 for Leishmania infantum MHOM/BR/72 promastigotes.
The subject of another assay is Trypanosoma cruzi. Put plainly: Anti-trypanosomal activity against Trypanosoma cruzi Y epimastigotes assessed as parasite growth inhibition incubated for 72 hrs by MTT assay. Type of assay: functional, organism-based.
Assay [5] in a line: Selectivity index, ratio of EC50 for BALB/c mouse peritoneal macrophages to EC50 for Trypanosoma cruzi Y epimastigotes.
Assay [6] in a line: Cytotoxicity against Swiss mouse peritoneal macrophages incubated for 24 hrs by MTT assay. The following applies: Peritoneal macrophage cell.
Assay [7] concerns Leishmania amazonensis. Put plainly: Anti-leishmanial activity against Leishmania amazonensis MPRO/BR/1972/M1841-LV-79 amastigotes infected in BALB/c mouse peritoneal macrophages assessed as reduction in the infection index incubated for 24 hrs by Giemsa staining method. Conditions: MPRO/BR/1972/M1841-LV-79, 24 h. Type of assay: functional, organism-based.
Assay [8] is described as follows: Selectivity index, ratio of EC50 for BALB/c mouse peritoneal macrophages to EC50 for Leishmania amazonensis MPRO/BR/1972/M1841-LV-79 amastigotes.
Assay [9] deals with Leishmania infantum. Put plainly: Anti-leishmanial activity against Leishmania infantum MHOM/BR/72 amastigotes infected in BALB/c mouse peritoneal macrophages assessed as reduction in the infection index incubated for 24 hrs by Giemsa staining method. In kind it is functional, organism-based. Conditions: MHOM/BR/72, 24 h.
Assay [10] can be described thus: Selectivity index, ratio of EC50 for BALB/c mouse peritoneal macrophages to EC50 for Leishmania infantum MHOM/BR/72 amastigotes.

Regarding `O=C(/C=C/c1cccc(O)c1)c1ccccc1` [3-HYDROXY CHALCONE], the half-maximal effective concentration (EC50) – broadly, the midpoint of the concentration-response curve – with Leishmania amazonensis [1] is 412 µM; in the assay with Leishmania infantum [3], 185 µM; with Trypanosoma cruzi it was 68.3 µM; in [6], 143 µM. The results for the “Ratio EC50” value in assay [2], in assay [4] and in assay [5] were 0.35, 0.96 and 2.09, respectively.
Take `C[C@@H]1[C@H](O)[C@@H](C)/C=C/C=C/C=C/C=C/C=C/C=C/C=C/[C@H](O[C@@H]2O[C@H](C)[C@@H](O)[C@H](N)[C@@H]2O)C[C@@H]2O[C@](O)(C[C@@H](O)C[C@@H](O)[C@H](O)CC[C@@H](O)C[C@@H](O)CC(=O)O[C@H]1C)C[C@H](O)[C@H]2C(=O)O` [AMPHOTERICIN B]: the EC50 was 3.22 µM in the assay with Leishmania amazonensis [1]; 4.92 µM in the assay on Leishmania amazonensis [7]; 0.92 µM in the assay with Leishmania infantum [3]; 2.98 µM with Leishmania infantum [9]; 23.1 µM in assay [6]. The “Ratio EC50” value in assay [2] worked out at 7.17; in [8], 4.7; in assay [4], 25.11; in assay [10], 7.75.
`CC(C)=CCC/C(C)=C/COc1cccc(/C=C/C(=O)c2ccccc2)c1`: the EC50 in the assay with Leishmania amazonensis [1] was 8.92 µM; with Leishmania amazonensis [7], 25.8 µM; in the assay on Leishmania infantum [3], 7.81 µM; in the assay with Leishmania infantum [9] it was 63.9 µM; in the assay with Trypanosoma cruzi, 26.2 µM; in assay [6], 81.9 µM. Also, the “Ratio EC50” value worked out at 9.18 in [2]; 3.17 in [8]; 10.49 in [4]; 1.28 in [10]; 3.12 in assay [5].
Consider `CC(C)=CCOc1ccccc1/C=C/C(=O)c1ccccc1`, for which the EC50 with Leishmania amazonensis [1] worked out at 4.38 µM; with Leishmania amazonensis [7], 19.9 µM; with Leishmania infantum [3] it was 4.69 µM; in the assay with Leishmania infantum [9], 10.4 µM; in the assay with Trypanosoma cruzi, 21.6 µM; in [6], 111 µM. The “Ratio EC50” value in assay [2] is reported as 25.41; in assay [8], 5.58; in assay [4], 23.73; in assay [10] it was 10.69; in [5], 5.16.
With `O=C(Cn1ccnc1[N+](=O)[O-])NCc1ccccc1` [BENZNIDAZOLE], the 50% effective concentration (EC50) in the assay on Trypanosoma cruzi turned out to be 4.07 µM.
For `O=C(/C=C/c1ccccc1)c1ccccc1` [CHALCONE], the concentration giving a half-maximal response (EC50) is 13.2 µM in the assay on Leishmania amazonensis [1], 8.89 µM in the assay on Leishmania infantum [3], 103 µM in the assay on Trypanosoma cruzi and 9.5 µM in assay [6]. In addition, the “Ratio EC50” value was 0.7 in assay [2], 1.06 in assay [4] and 0.09 in assay [5].
Take `O=C(/C=C/c1ccccc1O)c1ccccc1`: the EC50 came to 334 µM in the assay with Leishmania amazonensis [1], 91.7 µM with Leishmania infantum [3], 75.9 µM in the assay with Trypanosoma cruzi and 143 µM in [6]. Moreover, the “Ratio EC50” value in assay [2] was determined as 0.43; in assay [4] it was 1.56; in assay [5], 1.88.
As for `CC(C)=CCC/C(C)=C/CC/C(C)=C/COc1ccccc1/C=C/C(=O)c1ccccc1`, the EC50 in the assay with Leishmania amazonensis [1] was found to be 6.47 µM; with Leishmania amazonensis [7], 2.9 µM; in the assay with Leishmania infantum [3], 10.2 µM; in the assay on Leishmania infantum [9] it was 2.24 µM; in the assay with Trypanosoma cruzi, 69.4 µM; in assay [6], 141 µM. The “Ratio EC50” value is on record as 21.74 in assay [2]; 48.5 in [8]; 13.78 in assay [4]; 62.79 in assay [10]; 2.03 in [5].
On to `CC(C)=CCC/C(C)=C/CC/C(C)=C/COc1cccc(/C=C/C(=O)c2ccccc2)c1`, for which the EC50 with Leishmania amazonensis [1] stood at 9.25 µM; with Leishmania amazonensis [7] it was 21.9 µM; with Leishmania infantum [3], 5.98 µM; with Leishmania infantum [9], 32.5 µM; with Trypanosoma cruzi, 23.8 µM; in assay [6], 55.1 µM. Besides, the “Ratio EC50” value in [2] was 6; in [8] it was 2.52; in [4], 9.22; in [10], 1.69; in assay [5], 2.32.
`N=C(N)c1ccc(OCCCCCOc2ccc(C(=N)N)cc2)cc1` [PENTAMIDINE]: the EC50 with Leishmania amazonensis [1] stood at 10.2 µM; in the assay on Leishmania amazonensis [7] it was 6.25 µM; in the assay with Leishmania infantum [3], 67.7 µM; in the assay on Leishmania infantum [9], 19.8 µM; in [6] it was 35.7 µM. In addition, the “Ratio EC50” value in [2] was found to be 3.5; in [8] it was 5.71; in assay [4], 0.53; in [10], 1.81.
